Test results reported in patent US20260209272A1 (priority 2022, published 2026).
Ends that are not written are not given here.

Tests used:
Phytophthora infestans [1] = format: in vivo
[2] = test system: Phytophthora infestans zoospores
Phytophthora infestans [3] = format: in vivo; remark: listed apart in the source
detached potato leaves = detached potato leaves treated with peptide plus water, no inoculum; 9 = clean leaves

Substance	protection against infection (in words), experiment repeated one week later (Phytophthora infestans [1]; 400 uM, detached potato leaves)	average score (1-9 scale of late blight infection) (Phytophthora infestans [1]; 6 days after Phytophthora infection, 50 sporangia/ul final, 4 drops of 10 ul per leaflet, 20 C, peptides 400 uM final, Mancozeb product diluted 1:1000, 9 = no symptoms, water positive control 6.56)	late blight lesions, peptide expressed in E. coli (Phytophthora infestans [1]; detached leaf assay, Peptide V1 expressed in E. coli)	protection (in words), further repeat, first time (Phytophthora infestans [1]; detached potato leaves)	protection (in words), further repeat, second time (Phytophthora infestans [1]; detached potato leaves)	overall conclusion on efficacy (Phytophthora infestans [1]; over all detached leaf experiments)	activity in the presence of other agrochemical active ingredients ([2]; FIG. 9 legend)	zoospore germination, peptide expressed in E. coli ([2]; Peptide V1 expressed in E. coli)	additive or synergistic effects with chemical fungicides ([2]; Peptide V1 with either Mancozeb or Fungonil (Chlorothalonil), germination assays)	protection among concentrations tested with and without LI-700 (Phytophthora infestans [3]; large plants, 400 μM peptide)	severity of symptoms compared with non-treated control group, combination (Phytophthora infestans [3]; plant assays, low dose Peptide V1 (25 μM) combined with low dose of Mancozeb)	severity of symptoms compared with non-treated control group (Phytophthora infestans [3]; plant assays, low dose alone (Peptide V1 25 μM; low dose of Mancozeb))	disease reduction (Phytophthora infestans [3]; whole plant assays, 400 μM peptide concentration)	score (1-9 scale), negative control without Phytophthora infestans inoculation (detached potato leaves)
RITAQIRL [Peptide V1]	almost as good at reducing infection	8.37	it allowed the development of minor late blight lesions, it is noteworthy that these lesions did not progress	some protection	excellent protection	consistently works well	retains its activity	completely inhibited zoospore germination	did not indicate any evidence of additive or synergistic effects	best protection	approximately the same	approximately the same	approximately 60%	
RNTAQIP [Peptide V2, RNTAQIP]														8.67
